How the values were obtained:
Type in all cases: nucleic-acid assay
Nucleic Acid [1] = experiment: Tested for binding affinity against RNA construct C; n.b. means no observable binding
Nucleic Acid [2] = experiment: Tested for binding affinity against RNA construct B
Nucleic Acid [3] = experiment: Tested for binding affinity against RNA construct E
Nucleic Acid [4] = experiment: Tested for binding affinity against RNA construct A
Nucleic Acid [5] = experiment: Tested for binding affinity against RNA construct C
Nucleic Acid [6] = experiment: Tested for binding affinity against RNA construct D
Nucleic Acid [7] = experiment: Tested for binding affinity against RNA construct E; n.b. means no observable binding
Nucleic Acid [8] = experiment: Tested for binding affinity against RNA construct B; n.b. means no observable binding
Nucleic Acid [9] = experiment: Tested for binding affinity against RNA construct A; n.b. means no observable binding
Nucleic Acid [10] = experiment: Tested for binding affinity against RNA construct D; n.b. means no observable binding

| Kd (Nucleic Acid [1]) | Kd (Nucleic Acid [2]) | Kd (Nucleic Acid [3]) | Kd (Nucleic Acid [4]) | Kd (Nucleic Acid [6]) | Kd (Nucleic Acid [7]) | Kd (Nucleic Acid [8]) | Kd (Nucleic Acid [9]) | Kd (Nucleic Acid [10]) | Structure (SMILES) | Kd (Nucleic Acid [5]) |
| --- | --- | --- | --- | --- | --- | --- | --- | --- | --- | --- |
| No binding | 2040 nM | 680 nM | 2070 nM | – | – | – | – | – | NC[C@H]1O[C@H](O[C@H]2[C@H](O)[C@@H](O[C@H]3O[C@H](CO)[C@@H](O)[C@H](N)[C@H]3O)[C@H](N)C[C@@H]2N)[C@H](N)C[C@@H]1O [TOBRAMYCIN] | – |
| – | – | 91 nM | 410 nM | 470 nM | – | – | – | – | NC[C@@H]1O[C@H](O[C@H]2[C@@H](O)[C@H](O[C@@H]3[C@@H](O)[C@H](N)C[C@H](N)[C@H]3O[C@H]3O[C@H](CN)[C@@H](O)[C@H](O)[C@H]3N)O[C@@H]2CO)[C@H](N)[C@@H](O)[C@@H]1O [FRAMYCETIN] | 4340 nM |
| No binding | 2900 nM | 910 nM | 2950 nM | 2750 nM | – | – | – | – | NC[C@H]1O[C@H](O[C@H]2[C@H](O)[C@@H](O[C@H]3O[C@H](CO)[C@@H](O)[C@H](N)[C@H]3O)[C@H](N)C[C@@H]2N)[C@H](N)[C@@H](O)[C@@H]1O [BEKANAMYCIN] | – |
| No binding | – | – | – | – | No binding | No binding | No binding | No binding | CN[C@@H]1[C@H](O[C@H]2[C@H](O[C@H]3[C@H](O)[C@@H](O)[C@H](N=C(N)N)[C@@H](O)[C@@H]3N=C(N)N)O[C@@H](C)[C@]2(O)C=O)O[C@@H](CO)[C@H](O)[C@H]1O [STREPTOMYCIN] | – |

| Structure (SMILES) | Kd (Nucleic Acid [1]) | Kd (Nucleic Acid [2]) | Kd (Nucleic Acid [3]) | Kd (Nucleic Acid [4]) | Kd (Nucleic Acid [6]) | Kd (Nucleic Acid [7]) | Kd (Nucleic Acid [8]) | Kd (Nucleic Acid [9]) | Kd (Nucleic Acid [10]) | Kd (Nucleic Acid [5]) |
| --- | --- | --- | --- | --- | --- | --- | --- | --- | --- | --- |
| NC[C@@H]1O[C@H](O[C@H]2[C@@H](O)[C@H](O[C@@H]3[C@@H](O)[C@H](N)C[C@H](N)[C@H]3O[C@H]3O[C@H](CO)[C@@H](O)[C@H](O)[C@H]3N)O[C@@H]2CO)[C@H](N)[C@@H](O)[C@@H]1O [PAROMOMYCIN] | – | 1580 nM | 400 nM | 1640 nM | 1700 nM | – | – | – | – | 5330 nM |
